Source: patent US12336991B2, “Factor XIIA inhibitors” (UNIVERSITY OF LEEDS, priority 2018, dated 2025)

Key:
Assay type in all cases: biochemical
[1] = molecular target: T1, thrombin (Homo sapiens, UniProt P00734); assay: Determination of selectivity: thrombin inhibition, chromogenic substrate GPR assay; conditions: fold selectivity for FXIIa over thrombin
T1 construct: FXa (5 nM) and thrombin (5 nM)
Procedure, shortened: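 Thrombin (5 nM) preincubated with compound 10 min at 37 °C in 50 mM Tris, 137 mM NaCl, pH 7.4, 5% DMSO, then GPR substrate ([…]) added. Absorbance at 405 nm read kinetically for 3 h; IC50 from initial rates, converted to Ki via Ki=IC50/(1+[S]/Km).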

[2] = molecular target: FXa (Homo sapiens, UniProt P00742); assay: Determination of selectivity: FXa inhibition, chromogenic substrate S2765 assay; conditions: fold selectivity for FXIIa over FXa
Procedure, shortened: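 Human FXa (5 nM) preincubated with compound (top 500 μM, 5% DMSO) 10 min at 37 °C in 50 mM Tris, 137 mM NaCl pH 7.4, then S2765 ([…]) added; A405 kinetics over 3 h at 37 °C. IC50 from initial rates, converted to Ki via Cheng-Prusoff.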

[3] = molecular target: T2, FXIIa (Homo sapiens, UniProt P00748); assay: Determination of Factor XIIa inhibition, chromogenic substrate S-2302 assay; conditions: human FXIIa alpha
T2 sequence (P00748 373-615 limits assumed): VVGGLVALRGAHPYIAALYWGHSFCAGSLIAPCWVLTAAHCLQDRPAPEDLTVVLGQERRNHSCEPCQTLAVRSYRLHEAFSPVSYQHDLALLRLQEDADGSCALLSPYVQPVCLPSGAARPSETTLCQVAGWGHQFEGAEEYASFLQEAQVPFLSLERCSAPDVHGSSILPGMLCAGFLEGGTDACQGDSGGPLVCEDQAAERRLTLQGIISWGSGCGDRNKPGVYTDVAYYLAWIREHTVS
T2 sequence (P00748 20-372 partner limits assumed): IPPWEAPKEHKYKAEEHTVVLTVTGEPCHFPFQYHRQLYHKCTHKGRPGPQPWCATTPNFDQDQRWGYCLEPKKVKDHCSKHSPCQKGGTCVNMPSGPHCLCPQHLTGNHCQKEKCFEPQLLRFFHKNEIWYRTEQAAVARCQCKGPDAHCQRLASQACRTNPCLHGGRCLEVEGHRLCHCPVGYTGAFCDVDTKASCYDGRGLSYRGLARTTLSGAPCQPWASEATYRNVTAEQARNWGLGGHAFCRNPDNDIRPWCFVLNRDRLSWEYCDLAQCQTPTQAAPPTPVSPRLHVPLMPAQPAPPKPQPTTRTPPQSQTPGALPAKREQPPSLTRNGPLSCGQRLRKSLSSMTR
Procedure, shortened: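 FXIIa (10 nM) preincubated with compound 10 min at 37° C. in 50 mM Tris, 137 mM NaCl pH 7.4, 5% DMSO, top concentration 500 μM, then S-2302 added ([…]). Absorbance at 405 nm read kinetically for 3 h; IC50 from initial rates, converted to Ki by Cheng-Prusoff.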

FXa, sequence (P00742 235-488 limits assumed): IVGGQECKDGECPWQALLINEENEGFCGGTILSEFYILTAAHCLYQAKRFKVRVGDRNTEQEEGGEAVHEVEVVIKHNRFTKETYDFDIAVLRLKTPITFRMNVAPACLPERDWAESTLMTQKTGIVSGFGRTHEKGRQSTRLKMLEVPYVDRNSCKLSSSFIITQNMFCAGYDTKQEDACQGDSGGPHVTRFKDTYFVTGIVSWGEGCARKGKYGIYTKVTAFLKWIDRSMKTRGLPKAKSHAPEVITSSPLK
FXa, sequence (P00742 41-179 partner limits assumed): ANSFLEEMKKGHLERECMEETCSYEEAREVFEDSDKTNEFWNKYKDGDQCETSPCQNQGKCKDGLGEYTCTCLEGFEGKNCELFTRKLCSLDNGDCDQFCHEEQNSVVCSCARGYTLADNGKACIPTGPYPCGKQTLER

Structure (SMILES) | Thrombin (human)/FXIIa alpha (human) [1] | FXa (human)/FXIIa alpha (human) [2] | Ki [3] [nM]
COc1ccc(C[C@@H]2C[C@@H](C(=O)NCc3ccc4c(c3)nnn4C)N(C(=O)[C@H]3C[C@@H](c4cnn(C)c4)CN3C)C2)cc1 [Example M05474, (2S,4R)-4-(4-Methoxy-benzyl)-1-[(2R,4S)-1-methyl-4-(1-methyl-1H-pyrazol-4-yl)-pyrrolidine-2-carbonyl]-pyrrolidine-2-carboxylic acid (1-methyl-1H-benzotriazol-5-ylmethyl)-amide] | +++ (fold selectivity values greater than 100) | ∘∘∘ | 200 to 2000
Cn1nnc2cc(CNC(=O)[C@@H]3C[C@H](c4ccccc4Oc4ccccc4)CN3C(=O)[C@H](N)CCc3ccccc3)ccc21 [Example M05174] | ++ (fold selectivity value of 10 to 100) | ∘∘ | > 2000
Cn1nnc2cc(CNC(=O)[C@@H]3CC(Cc4ccnc(F)c4)CN3C(=O)[C@H](N)CCC(=O)N3CCCC3)ccc21 (stereo partly drawn) [Example M05315] | ++ (fold selectivity value of 10 to 100) | ∘∘ | > 2000
Cn1nnc2cc(CNC(=O)[C@@H]3C[C@H](c4ccc(F)cc4)CN3C(=O)[C@H](N)CCc3ccccc3)ccc21 [Example M05157] | ++ (fold selectivity value of 10 to 100) | ∘∘ | > 2000
COc1ccc(C[C@@H]2C[C@@H](C(=O)NCc3ccc4c(c3)nnn4C)N(C(=O)[C@H]3CC(c4c(C)noc4C)CN3)C2)cc1 (stereo partly drawn) [Example M05409] | + (fold selectivity values less than 10) | ∘∘ | > 2000
COc1ccc(C[C@@H]2C[C@@H](C(=O)NCc3ccc4c(c3)nnn4C)N(C(=O)[C@H]3C[C@@H](Oc4ccccc4)CN3)C2)cc1 [Example M05351] | ++ (fold selectivity value of 10 to 100) | ∘∘ | > 2000
CN(C)[C@H](CCC(=O)N1CCCC1)C(=O)N1C[C@H](Cc2ccncc2)C[C@H]1C(=O)NCc1ccc2c(c1)nnn2C [Example M05220] | +++ (fold selectivity values greater than 100) | ∘∘∘ | 200 to 2000
Cn1ncc2cc(CNC(=O)[C@@H]3C[C@@H](Cc4cccnc4)CN3C(=O)[C@H](N)CCC(=O)N3CCCC3)ccc21 [Example M05228] | +++ (fold selectivity values greater than 100) | ∘∘∘ | 200 to 2000
COc1ccc(C[C@@H]2C[C@@H](C(=O)NCc3ccc4c(c3)nnn4C)N(C(=O)[C@H](N)CCC(=O)N3CCC[C@@H]3C(C)C)C2)cc1 [Example M05412] | +++ (fold selectivity values greater than 100) | ∘∘∘ | < 200
